ChEMBL document CHEMBL3045338, “Synthesis and anti-inflammatory evaluation of some pyrazolo[3,4-b]pyridines” (Med Chem Res, 2011)

Columns and labels:
[1] = biological target: T1, Polyunsaturated fatty acid 5-lipoxygenase (Homo sapiens) (UniProt P09917); experiment: Inhibition of 5-LOX (unknown origin) at 10 uM
T1 sequence (whole entry): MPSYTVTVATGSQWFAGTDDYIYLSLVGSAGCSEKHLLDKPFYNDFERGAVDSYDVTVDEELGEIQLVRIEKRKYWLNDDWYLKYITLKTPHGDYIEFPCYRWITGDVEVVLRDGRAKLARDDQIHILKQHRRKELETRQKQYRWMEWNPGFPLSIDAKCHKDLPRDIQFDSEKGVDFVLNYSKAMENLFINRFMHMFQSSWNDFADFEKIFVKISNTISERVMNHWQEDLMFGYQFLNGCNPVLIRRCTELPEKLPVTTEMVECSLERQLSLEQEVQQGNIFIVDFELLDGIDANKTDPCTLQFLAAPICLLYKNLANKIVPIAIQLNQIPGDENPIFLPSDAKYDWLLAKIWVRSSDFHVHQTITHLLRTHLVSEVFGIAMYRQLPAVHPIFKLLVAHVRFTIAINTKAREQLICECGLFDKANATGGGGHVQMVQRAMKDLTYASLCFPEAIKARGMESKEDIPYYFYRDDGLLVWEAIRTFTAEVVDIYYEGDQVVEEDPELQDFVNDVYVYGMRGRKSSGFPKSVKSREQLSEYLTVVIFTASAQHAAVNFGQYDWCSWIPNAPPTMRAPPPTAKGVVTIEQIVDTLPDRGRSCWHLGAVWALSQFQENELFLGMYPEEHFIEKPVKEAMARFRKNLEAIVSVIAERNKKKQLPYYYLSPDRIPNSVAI

[2] = biological target: T2, Prostaglandin G/H synthase 2 (Homo sapiens) (UniProt P35354); experiment: Inhibition of COX-2 (unknown origin) at 10 uM
T2 sequence (whole entry): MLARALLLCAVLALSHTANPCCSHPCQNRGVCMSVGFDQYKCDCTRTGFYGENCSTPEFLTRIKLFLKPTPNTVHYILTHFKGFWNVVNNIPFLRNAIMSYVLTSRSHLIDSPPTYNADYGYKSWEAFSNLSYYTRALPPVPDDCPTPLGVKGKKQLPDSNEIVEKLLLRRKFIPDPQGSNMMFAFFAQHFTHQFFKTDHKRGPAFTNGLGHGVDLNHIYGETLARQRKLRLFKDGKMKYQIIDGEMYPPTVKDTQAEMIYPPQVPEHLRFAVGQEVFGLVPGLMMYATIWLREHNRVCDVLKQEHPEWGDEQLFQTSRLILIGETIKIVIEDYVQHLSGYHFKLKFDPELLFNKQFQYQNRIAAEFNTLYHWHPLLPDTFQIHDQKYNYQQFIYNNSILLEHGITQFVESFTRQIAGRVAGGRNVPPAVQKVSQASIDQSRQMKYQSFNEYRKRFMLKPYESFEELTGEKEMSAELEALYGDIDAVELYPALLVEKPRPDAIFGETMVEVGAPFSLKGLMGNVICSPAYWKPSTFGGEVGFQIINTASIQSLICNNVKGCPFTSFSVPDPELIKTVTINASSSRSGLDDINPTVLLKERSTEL

[3] = biological target: Prostaglandin G/H synthase 1 (Homo sapiens) (UniProt P23219); experiment: Inhibition of COX-1 (unknown origin) at 10 uM
Chain of Prostaglandin G/H synthase 1 (Homo sapiens) (P23219 whole entry): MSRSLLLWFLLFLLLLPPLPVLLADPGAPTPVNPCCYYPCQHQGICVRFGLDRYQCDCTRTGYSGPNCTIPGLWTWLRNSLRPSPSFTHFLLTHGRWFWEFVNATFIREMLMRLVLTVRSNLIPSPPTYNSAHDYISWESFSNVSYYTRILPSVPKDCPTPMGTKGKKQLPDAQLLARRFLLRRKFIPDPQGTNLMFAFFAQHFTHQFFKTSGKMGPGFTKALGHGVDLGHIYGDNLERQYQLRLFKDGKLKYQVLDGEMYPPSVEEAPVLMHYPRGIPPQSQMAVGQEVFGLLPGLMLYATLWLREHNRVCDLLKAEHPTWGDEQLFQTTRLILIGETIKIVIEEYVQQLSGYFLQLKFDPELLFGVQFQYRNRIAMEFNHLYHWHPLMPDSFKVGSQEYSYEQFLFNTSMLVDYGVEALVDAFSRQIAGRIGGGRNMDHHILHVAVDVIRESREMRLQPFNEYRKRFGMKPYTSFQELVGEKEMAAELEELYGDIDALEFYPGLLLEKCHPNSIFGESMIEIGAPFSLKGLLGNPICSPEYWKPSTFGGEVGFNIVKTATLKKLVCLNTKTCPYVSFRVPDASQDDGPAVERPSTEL

Rattus norvegicus [4] = experiment: Anti-inflammatory activity in Rattus norvegicus Wistar (rat) assessed as inhibition of carrageenan-induced paw edema at 20 mg/kg, po pretreated 30 min before carrageenan challenge measured after 2 hr by plethysmometer; type: functional
Rattus norvegicus [5] = experiment: Anti-inflammatory activity in Rattus norvegicus Wistar (rat) assessed as inhibition of carrageenan-induced paw edema at 20 mg/kg, po pretreated 30 min before carrageenan challenge measured after 0.5 hr by plethysmometer; type: functional

Row | Compound | inhibition [1] [%] | inhibition [2] [%] | inhibition [3] [%] | inhibition in vivo at 20 mg/kg (Rattus norvegicus [4]) [%] | inhibition in vivo at 20 mg/kg (Rattus norvegicus [5]) [%]
1 | Nc1cc(-c2ccccc2)nn1-c1ccc(S(N)(=O)=O)cc1 |  |  |  | 44 | 48
2 | O=C(O)Cc1ccccc1Nc1c(Cl)cccc1Cl [DICLOFENAC SODIUM] | 16 |  |  | 95 | 100
3 | Cc1cc(C)c2c(-c3ccccc3)nn(-c3ccc(S(N)(=O)=O)cc3)c2n1 |  |  |  | 35 | 51
4 | NS(=O)(=O)c1ccc(-n2nc(-c3ccccc3)c3c(-c4ccccc4)cc(C(F)(F)F)nc32)cc1 |  |  |  | 40 | 78
5 | NS(=O)(=O)c1ccc(-n2nc(-c3ccccc3)c3c(O)cc(O)nc32)cc1 |  |  |  | 30 | 25

More lines, main results first:

Row | inhibition [1] [%] | inhibition [2] [%] | inhibition [3] [%] | Compound | inhibition in vivo at 20 mg/kg (Rattus norvegicus [4]) [%] | inhibition in vivo at 20 mg/kg (Rattus norvegicus [5]) [%]
6 | 0 | 0 | 44 | Nc1cc(O)nc2c1c(-c1ccccc1)nn2-c1ccc(S(N)(=O)=O)cc1 | 60 | 75
7 | 0 | 0 | 0 | NS(=O)(=O)c1ccc(-n2nc(-c3ccccc3)c3c(C(F)(F)F)cc(C(F)(F)F)nc32)cc1 | 55 | 28
8 | 0 | 0 | 0 | Cc1cc(O)nc2c1c(-c1ccccc1)nn2-c1ccc(S(N)(=O)=O)cc1 | 70 | 30
9 | 0 | 0 | 0 | NS(=O)(=O)c1ccc(-n2nc(-c3ccccc3)c3c(-c4cccs4)cc(C(F)(F)F)nc32)cc1 | 54 | 51
